From US20130324725A1, “AMINOPYRIMIDINES USEFUL AS KINASE INHIBITORS” (VERTEX PHARMACEUTICALS INCORPORATED, priority 2007, published 2013) come the findings set out here.

One assay concerns Colo205 cells. The experiment in a line: Analysis of cell proliferation and viability. The assay is classed as cell-based. Conditions: Homo sapiens. As for the experimental part:
Compounds were screened for their ability to inhibit cell proliferation and their effects on cell viability using Colo205 cells obtained from ECACC and using the assay shown below.
Colo205 cells were seeded in 96 well plates and serially diluted compound was added to the wells in duplicate. Control groups included untreated cells, the compound diluent (0.1% DMSO alone) and culture medium without cells. The cells were then incubated for 72 or 96 hrs at 37 C in an atmosphere of 5% CO2/95% humidity.
To measure proliferation, 3 h prior to the end of the experiment 0.5 μCi of 3H thymidine was added to each well. Cells were then harvested and the incorporated radioactivity counted on a Wallac microplate beta-counter. Cell viability was assessed using Promega CellTiter 96AQ to measure MTS conversion. Dose response curves were calculated using either Prism 3.0 (GraphPad) or SoftMax Pro 4.3.1 LS (Molecular Devices) software.

The target of the next assay is Aurora-1 (Aurora B) (Homo sapiens, UniProt Q96GD4). As to the kind of experiment: Aurora-1 (Aurora B) inhibition assay (radiometric). Particulars: 800 μM ATP, 25° C.; read-out: Ki, Aurora-1 (Aurora B) radiometric assay (sentence prints Aurora A). The assay is classed as biochemical. As for the experimental part:
An assay buffer solution was prepared which consisted of 25 mM HEPES (pH 7.5), 10 mM MgCl2, 0.1% BSA and 10% glycerol. A 22 nM Aurora-B solution, also containing 1.7 mM DTT and 1.5 mM Kemptide (LRRASLG), was prepared in assay buffer. To 22 μL of the Aurora-B solution, in a 96-well plate, was added 2 μl of a compound stock solution in DMSO and the mixture allowed to equilibrate for 10 minutes at 25° C. The enzyme reaction was initiated by the addition of 16 μl stock [γ-^33P]-ATP solution ([…]) prepared in assay buffer, to a final assay concentration of 800 μM. The reaction was stopped after 3 hours by the addition of 16 μL 500 mM phosphoric acid and the levels of ^33P incorporation into the peptide substrate were determined by the following method.
A phosphocellulose 96-well plate (Millipore, Cat no. MAPHNOB50) was pre-treated with 100 μL of a 100 mM phosphoric acid prior to the addition of the enzyme reaction mixture (40 μL). […] Levels of non-enzyme catalyzed background radioactivity were determined by adding 16 μL of the 500 mM phosphoric acid to control wells, containing all assay components (which acts to denature the enzyme), prior to the addition of the [γ-^33P]-ATP solution. Levels of enzyme catalyzed ^33P incorporation were calculated by subtracting mean background counts from those measured at each inhibitor concentration. […]

In another assay the target is T1, Aurora-2 (Aurora A) (Homo sapiens, UniProt O14965).
T1 sequence (O14965 1-403): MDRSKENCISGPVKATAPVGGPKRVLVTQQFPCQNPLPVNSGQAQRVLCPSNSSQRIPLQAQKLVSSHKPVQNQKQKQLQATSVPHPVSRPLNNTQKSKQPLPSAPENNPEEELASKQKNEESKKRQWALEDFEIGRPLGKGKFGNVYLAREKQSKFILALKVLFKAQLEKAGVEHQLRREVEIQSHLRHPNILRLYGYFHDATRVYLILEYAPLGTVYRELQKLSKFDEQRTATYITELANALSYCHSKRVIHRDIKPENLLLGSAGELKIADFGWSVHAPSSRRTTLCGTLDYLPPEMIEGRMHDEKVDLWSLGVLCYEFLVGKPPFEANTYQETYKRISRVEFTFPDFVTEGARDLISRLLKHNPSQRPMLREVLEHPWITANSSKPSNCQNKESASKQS
As to the kind of experiment: Aurora-2 (Aurora A) inhibition assay, coupled enzyme. The format is biochemical. Particulars: 400 μM ATP, 30° C. As for the experimental part:
Compounds were screened for their ability to inhibit Aurora-2 using a standard coupled enzyme assay (Fox et al., Protein Sci., (1998) 7, 2249). Assays were carried out in a mixture of 100 mM Hepes (pH7.5), 10 mM MgCl2, 1 mM DTT, 25 mM NaCl, 2.5 mM phosphoenolpyruvate, 300 μM NADH, 30 μg/ml pyruvate kinase and 10 μg/ml lactate dehydrogenase. Final substrate concentrations in the assay were 400 μM ATP (Sigma Chemicals) and 570 μM peptide (Kemptide, American Peptide, Sunnyvale, Calif.). Assays were carried out at 30° C. and in the presence of 40 nM Aurora-2.
An assay stock buffer solution was prepared containing all of the reagents listed above, with the exception of Aurora-2 and the test compound of interest. 55 μl of the stock solution was placed in a 96 well plate followed by addition of 2 μl of DMSO stock containing serial dilutions of the test compound (typically starting from a final concentration of 7.5 μM). The plate was preincubated for 10 minutes at 30° C. and the reaction initiated by addition of 10 μl of Aurora-2. Initial reaction rates were determined with a Molecular Devices SpectraMax Plus plate reader over a 10 minute time course. IC50 and Ki data were calculated from non-linear regression analysis using the Prism software package (GraphPad Prism version 3.0cx for Macintosh, GraphPad Software, San Diego Calif., USA).

The target of assay [1] is T2, T315I mutant of human Abl (Homo sapiens, UniProt P00519, T315I).
T2 construct: purchased Upstate Cell Signaling Solutions (Dundee, UK), assay run at the vendor
The experiment in a line: Mutant Abl kinase (T315I) activity inhibition assay. The format is biochemical. Conditions: at Upstate Cell Signaling Solutions. The procedure: Compounds were screened for their ability to inhibit the T315I mutant form of human Abl at Upstate Cell Signaling Solutions (Dundee, UK). In a final reaction volume of 25 μl, the T315I mutant of human Abl (5-10 mU) was incubated with 8 mM MOPS pH 7.0, 0.2 mM EDTA, 50 μM EAIYAAPFAKKK, 10 mM Mg Acetate, [γ-^33P-ATP](specific activity approx. 500 cpm/pmol, […] final assay concentration) and the test compound of interest at final concentrations over the range […]. The reaction was initiated by the addition of the MgATP mix. After incubation for 40 minutes at room temperature, the reaction was stopped by the addition of 5 μl of a 3% phosphoric acid solution. 10 μl of the reaction was then spotted onto a P30 filtermat and washed three times for 5 minutes in 75 mM phosphoric acid and once in methanol prior to drying and scintillation counting. […]

Where [2] appears, read: COLO 205, 72 hours, read-out: IC50 values after 72 hours.
Where [3] appears, read: COLO 205, 96 hours, read-out: IC50 values after 96 hours.

Like-named read-outs stand apart in the source and are kept apart here. Where only a bound is given, the exact number is not on record here.

Aurora-1 (Aurora B), sequence (Q96GD4 whole entry): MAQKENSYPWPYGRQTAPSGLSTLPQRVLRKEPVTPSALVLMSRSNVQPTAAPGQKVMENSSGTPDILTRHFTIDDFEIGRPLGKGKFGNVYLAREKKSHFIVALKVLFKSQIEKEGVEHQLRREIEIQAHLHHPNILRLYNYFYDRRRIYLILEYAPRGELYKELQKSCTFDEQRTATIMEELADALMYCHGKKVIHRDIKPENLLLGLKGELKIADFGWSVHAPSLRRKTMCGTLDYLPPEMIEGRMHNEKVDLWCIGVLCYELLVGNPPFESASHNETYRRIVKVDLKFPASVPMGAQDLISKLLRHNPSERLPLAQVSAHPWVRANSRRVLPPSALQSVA

The term IC50 denotes the point on the concentration scale where inhibition reaches its midpoint. For `Cc1cc(Nc2cc(N3CCN(C4CCCCC4)CC3)nc(Sc3cc(F)c4nc(C)ccc4c3)n2)[nH]n1` [Compound I-1], the IC50 in the assay with Colo205 cells (setting [2]) lay in the range of 50 to 100 nM. For the compound `Cc1cc(Nc2cc(N3CCN(C(C)(C)CF)CC3)nc(Sc3ccc4c(c3)CN(CC(F)(F)F)C4=O)n2)[nH]n1` [Compound I-2], the IC50 in the assay on Colo205 cells (setting [2]) is 50 to 100 nM. Consider `Cc1cc(Nc2cc(N3CCN(C4CCCCC4)CC3)nc(Sc3ccc4nc(C(F)(F)F)n(C)c4c3)n2)[nH]n1` [Compound I-3], for which the IC50 in the assay on Colo205 cells (setting [2]) and with Colo205 cells (setting [3]) was below 50 nM each time. Regarding `Cc1cc(Nc2cc(N3CCN(C4CC4)CC3)nc(Sc3ccc4nc(C(F)(F)F)[nH]c4c3)n2)[nH]n1` [Compound I-4], the IC50 in the assay on Colo205 cells (setting [2]) was 50 to 100 nM. With `Cc1cc(Nc2cc(N3CCN(C4CC4)CC3)nc(Sc3ccc4nc(CC(F)(F)F)n(C)c4c3)n2)[nH]n1` [Compound I-5], in the assay with Colo205 cells (setting [2]), the IC50 was below 50 nM. For the compound `Cc1cc(Nc2cc(N3CCN(C(C)(C)CF)CC3)nc(Sc3ccc4nc(CC(F)(F)F)n(C)c4c3)n2)[nH]n1` [Compound I-7], the IC50 in the assay on Colo205 cells (setting [2]) is below 50 nM.

Consider `Cc1cc(Nc2cc(N3CCN(C4CCCCC4)CC3)nc(Sc3ccc4nc(C(F)(F)F)[nH]c4c3)n2)[nH]n1` [Compound I-8], for which, in the assay on Colo205 cells (setting [2]), the IC50 is below 50 nM. By Ki is commonly meant a measure of affinity in units of concentration, obtained from inhibition or displacement. Consider `Cc1cc(Nc2cc(N3CCN(CC(F)(F)F)CC3)nc(Sc3ccc4nc(C(F)(F)F)[nH]c4c3)n2)[nH]n1` [Compound I-9], for which the values for the Ki on Aurora-1 (Aurora B) and at Aurora-2 (Aurora A) were 20 to 50 nM and at most 1 nM, respectively. Consider `Cc1cc(Nc2cc(N3CCN(C4CC4)CC3)nc(Sc3ccc4nc(C(F)(F)F)n(C)c4c3)n2)[nH]n1` [Compound I-10], for which the values for the IC50 in the assay on Colo205 cells (setting [2]) and with Colo205 cells (setting [3]) were 50 to 100 nM and below 50 nM, respectively. Regarding `Cc1cc(Nc2cc(N3CCN(C4CCN(C)CC4)CC3)nc(Sc3ccc4nc(C(F)(F)F)n(C)c4c3)n2)[nH]n1` [Compound I-12], the IC50 in the assay with Colo205 cells (setting [2]) is below 50 nM.

On to `Cc1cc(Nc2cc(N3CCN(C4CCN(C)CC4)CC3)nc(Sc3cc(F)c4nc(C)ccc4c3)n2)[nH]n1` [Compound I-13, 2-(8-fluoro-2-methylquinolin-6-ylthio)-N-(3-methyl-1H-pyrazol-5-yl)-6-(4-(1-methylpiperidin-4-yl)piperazin-1-yl)pyrimidin-4-amine], for which, in the assay with Colo205 cells (setting [2]), the IC50 is below 50 nM. Take `Cc1cc(Nc2cc(N3CCN(C(C)(C)C)CC3)nc(Sc3ccc4c(cnn4C)c3)n2)[nH]n1` [Compound I-16]: the IC50 in the assay on Colo205 cells (setting [3]) is below 50 nM. In the case of `Cc1cc(Nc2cc(N3CCN(C4CCN(C)CC4)CC3)nc(Sc3ccc4nc(C(F)(F)F)ccc4c3)n2)[nH]n1` [Compound I-17], in the assay with Colo205 cells (setting [2]), the IC50 is 50 to 100 nM. This compound also displayed an inhibition constant Ki in assay [1] below 25 nM.

In the case of `Cc1cc(Nc2cc(N3CCN(C(C)(C)C)CC3)nc(Sc3ccc4ncn(C)c4c3)n2)[nH]n1` [Compound I-18], the IC50 with Colo205 cells (setting [3]) is below 50 nM. Turning to `Cc1cc(Nc2cc(N3CCN(C4CCCCC4)CC3)nc(Sc3ccc4nc(CC(F)(F)F)n(C)c4c3)n2)[nH]n1` [Compound I-19], in the assay on Colo205 cells (setting [2]), the IC50 is below 50 nM. Turning to `Cc1cc(Nc2cc(N3CCN(C4CC4)CC3)nc(Sc3ccc4c(c3)CN(CC(F)(F)F)C4=O)n2)[nH]n1` [Compound I-20], the IC50 in the assay on Colo205 cells (setting [2]) is below 50 nM. Turning to `Cc1cc(Nc2cc(N3CCN(CC(F)(F)F)CC3)nc(Sc3ccc4c(c3)CN(CC(F)(F)F)C4=O)n2)[nH]n1` [Compound I-24], in the assay with Colo205 cells (setting [2]), the IC50 was 50 to 100 nM. As to `Cc1cc(Nc2cc(N3CCN(C4CCCCC4)CC3)nc(Sc3ccc4c(c3)CN(CC(F)(F)F)C4=O)n2)[nH]n1` [Compound I-25], the IC50 with Colo205 cells (setting [2]) is below 50 nM.
